# Laboratory results as given in patent US20230050398A1, “METHODS FOR INCREASING SHELF-LIFE OF OPHTHALMIC PHARMACEUTICAL COMPOSITIONS” (Harrow IP, LLC, priority 2021, published 2023).
# What was measured:
# Format in all cases: physicochemical
# [1] = Stability of ophthalmic pharmaceutical composition of Example 2: amount of active ingredient by UHPLC; settings: Example 2 composition; for Pass/Fail: 25° C., acceptance 90-110% of label claim (bromfenac, moxifloxacin), 90-115% (prednisolone acetate); for % Label Claim / Amount Found: stored at 25° C.
# Procedure: (§1) The stability of an ophthalmic pharmaceutical composition made by the method of the present disclosure was studied and confirmed by the Compounder's International Analytical Laboratory. The data collected included the concentration of the active ingredients in the composition, the pH, and the appearance, color, and odor of the composition. The amount of active ingredient in the ophthalmic pharmaceutical composition was determined by ultra high performance liquid chromatography (UHPLC). The composition was stored at 25° C. The composition comprised the active ingredients bromfenac, moxifloxacin, and prednisolone acetate. The composition was considered stable if it contained 90-110% of the label claim of bromfenac and moxifloxacin and 90-115% of the label claim of prednisolone acetate. pH was determined according to USP 791, incorporated by reference herein. Additionally, the container enclosure was tested at baseline according to USP 1207 and 381, incorporated by reference herein. No blue dye was observed via UV-Vis spectrophotometry.
# A sample of the composition was provided on May 28, 2021. […] 7, 2021.
# [2] = Stability of comparator composition (Example 3): amount of active ingredient by UHPLC; settings: for Pass/Fail: 25° C., acceptance 90-110% of label claim (bromfenac, moxifloxacin), 90-115% (prednisolone acetate); for % Label Claim (Potency) / Amount Found: stored at 25° C.
# Procedure: The data collected included the concentration of the active ingredients in the composition. The amount of active ingredient in the composition was determined by ultra high performance liquid chromatography (UHPLC). The comparator composition was stored at 25° C. The composition comprised the active ingredients bromfenac, moxifloxacin, and prednisolone acetate.
# A sample of the composition was provided on Nov.
# [3] = Stability of ophthalmic pharmaceutical composition of Example 1: amount of active ingredient by UHPLC; settings: Example 1 composition; for Pass/Fail: 25° C., acceptance 90-110% of label claim (bromfenac, moxifloxacin), 90-115% (prednisolone acetate); for % Label Claim / Amount Found: stored at 25° C.
# Procedure: as §1, with “acetate.” for “acetate. pH was determined according to USP 791, incorporated by reference herein. Additionally, the container enclosure was tested at baseline according to USP 1207 and 381, incorporated by reference herein. No blue dye was observed via UV-Vis spectrophotometry.”
# A sample of the composition was provided on Jul. 31, 2020. […] 21, 2020.
smiles,measurement,setting,value
"Nc1c(CC(=O)O)cccc1C(=O)c1ccc(Br)cc1 [Bromfenac, bromfenac]",Pass/Fail,[1]; after 90 days,Pass
same,Pass/Fail,[1]; after 180 days,Pass
same,Pass/Fail,[1]; after 270 days,Pass
same,Pass/Fail,[1]; after 300 days,Pass
same,Pass/Fail,[1]; after 365 days,Pass
same,Pass/Fail,[1]; baseline,Pass
same,% Label Claim,[1]; after 90 days,101.9%
same,Amount Found,[1]; after 90 days,0.07646%
same,% Label Claim,[1]; after 180 days,98.6%
same,Amount Found,[1]; after 180 days,0.07398%
same,% Label Claim,[1]; after 270 days,92.5%
same,Amount Found,[1]; after 270 days,0.06939%
same,% Label Claim,[1]; after 300 days,95.5%
same,Amount Found,[1]; after 300 days,0.0716%
same,% Label Claim,[1]; after 365 days,91.1%
same,Amount Found,[1]; after 365 days,0.06834%
same,% Label Claim,[1]; baseline,100.0%
same,Amount Found,[1]; baseline,0.07499%
same,Pass/Fail,[2]; after 30 days,Pass
same,Pass/Fail,[2]; after 60 days,Pass
same,Pass/Fail,[2]; after 90 days,Fail
same,Pass/Fail,[2]; after 120 days,Fail
same,Pass/Fail,[2]; after 150 days,Fail
same,Pass/Fail,[2]; after 180 days,Fail
same,Pass/Fail,[2]; baseline,Pass
same,% Label Claim (Potency),[2]; after 30 days,94.9%
same,Amount Found,[2]; after 30 days,0.071%
same,% Label Claim (Potency),[2]; after 60 days,92.2%
same,Amount Found,[2]; after 60 days,0.0692%
same,% Label Claim (Potency),[2]; after 90 days,87%
same,Amount Found,[2]; after 90 days,0.0660%
same,% Label Claim (Potency),[2]; after 120 days,82%
same,Amount Found,[2]; after 120 days,0.0618%
same,% Label Claim (Potency),[2]; after 150 days,84%
same,Amount Found,[2]; after 150 days,0.0627%
same,% Label Claim (Potency),[2]; after 180 days,78%
same,Amount Found,[2]; after 180 days,0.0584%
same,% Label Claim (Potency),[2]; baseline,99.6%
same,Amount Found,[2]; baseline,0.0747%
same,Pass/Fail,[3]; after 90 days,Pass
same,Pass/Fail,[3]; after 120 days,Pass
same,Pass/Fail,[3]; after 180 days,Pass
same,Pass/Fail,[3]; after 210 days,Pass
same,Pass/Fail,[3]; after 270 days,Pass
same,Pass/Fail,[3]; baseline,Pass
same,% Label Claim,[3]; after 90 days,98.3%
same,Amount Found,[3]; after 90 days,0.07373%
same,% Label Claim,[3]; after 120 days,100.8%
same,Amount Found,[3]; after 120 days,0.07559%
same,% Label Claim,[3]; after 180 days,105.6%
same,Amount Found,[3]; after 180 days,0.07917%
same,% Label Claim,[3]; after 210 days,101.6%
same,Amount Found,[3]; after 210 days,0.0762%
same,% Label Claim,[3]; after 270 days,97.5%
same,Amount Found,[3]; after 270 days,0.07312%
same,% Label Claim,[3]; baseline,107.0%
same,Amount Found,[3]; baseline,0.08023%
"CC(=O)OCC(=O)[C@@]1(O)CC[C@H]2[C@@H]3CCC4=CC(=O)C=C[C@]4(C)[C@H]3[C@@H](O)C[C@@]21C [Prednisolone acetate, prednisolone acetate]",Pass/Fail,[1]; after 90 days,Pass
same,Pass/Fail,[1]; after 180 days,Pass
same,Pass/Fail,[1]; after 270 days,Pass
same,Pass/Fail,[1]; after 300 days,Pass
same,Pass/Fail,[1]; after 365 days,Pass
same,Pass/Fail,[1]; baseline,Pass
same,% Label Claim,[1]; after 90 days,98.0%
same,Amount Found,[1]; after 90 days,0.9805%
same,% Label Claim,[1]; after 180 days,98.8%
same,Amount Found,[1]; after 180 days,0.9883%
same,% Label Claim,[1]; after 270 days,97.4%
same,Amount Found,[1]; after 270 days,0.9743%
same,% Label Claim,[1]; after 300 days,99.5%
same,Amount Found,[1]; after 300 days,0.9954%
same,% Label Claim,[1]; after 365 days,99.6%
same,Amount Found,[1]; after 365 days,0.9960%
same,% Label Claim,[1]; baseline,102.4%
same,Amount Found,[1]; baseline,1.024%
same,Pass/Fail,[2]; after 30 days,Pass
same,Pass/Fail,[2]; after 60 days,Pass
same,Pass/Fail,[2]; after 90 days,Pass
same,Pass/Fail,[2]; after 120 days,Pass
same,Pass/Fail,[2]; after 150 days,Pass
same,Pass/Fail,[2]; after 180 days,Pass
same,Pass/Fail,[2]; baseline,Pass
same,% Label Claim (Potency),[2]; after 30 days,97.8%
same,Amount Found,[2]; after 30 days,0.978%
same,% Label Claim (Potency),[2]; after 60 days,90.0%
same,Amount Found,[2]; after 60 days,0.9001%
same,% Label Claim (Potency),[2]; after 90 days,99%
same,Amount Found,[2]; after 90 days,0.9885%
same,% Label Claim (Potency),[2]; after 120 days,95%
same,Amount Found,[2]; after 120 days,0.9505%
same,% Label Claim (Potency),[2]; after 150 days,93%
same,Amount Found,[2]; after 150 days,0.926%
same,% Label Claim (Potency),[2]; after 180 days,91%
same,Amount Found,[2]; after 180 days,0.907%
same,% Label Claim (Potency),[2]; baseline,98.4%
same,Amount Found,[2]; baseline,0.984%
same,Pass/Fail,[3]; after 90 days,Pass
same,Pass/Fail,[3]; after 120 days,Pass
same,Pass/Fail,[3]; after 180 days,Pass
same,Pass/Fail,[3]; after 210 days,Pass
same,Pass/Fail,[3]; after 270 days,Pass
same,Pass/Fail,[3]; baseline,Pass
same,% Label Claim,[3]; after 90 days,99.2%
same,Amount Found,[3]; after 90 days,0.9915%
same,% Label Claim,[3]; after 120 days,103.5%
same,Amount Found,[3]; after 120 days,1.035%
same,% Label Claim,[3]; after 180 days,105.6%
same,Amount Found,[3]; after 180 days,1.056%
same,% Label Claim,[3]; after 210 days,106.5%
same,Amount Found,[3]; after 210 days,1.065%
same,% Label Claim,[3]; after 270 days,103.6%
same,Amount Found,[3]; after 270 days,1.036%
same,% Label Claim,[3]; baseline,100.0%
same,Amount Found,[3]; baseline,1.000%
